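Protocol summary: plate cells (96-well), add compound at 5 concentrations, incubate 48 h, interpolate endpoints linearly. At the GI50, growth is halved.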 Calls of active or inactive are those of the source. No stated cut-off is given here; in the data, active = GI50 up to about 1.1 µM and inactive = higher.
How the values were obtained:
Test in all cases: inhibition of tumour cell growth, NCI panel, 48 h
OVCAR-8 = test system: OVCAR-8
UACC-62 = test system: UACC-62
SK-OV-3 = test system: SK-OV-3
RXF 393 = test system: RXF 393
CAKI-1 = test system: CAKI-1
SF-268 = test system: SF-268
SN12C = test system: SN12C
MOLT-4 = test system: MOLT-4
NCI-H522 = test system: NCI-H522
COLO 205 = test system: COLO 205
HOP-62 = test system: HOP-62
OVCAR-3 = test system: OVCAR-3
HL-60 = test system: HL-60
Malme-3M = test system: Malme-3M
SR = test system: SR
NCI-H226 = test system: NCI-H226

Measured: GI50

COC(=O)C[C@H]1CCC2(OCCO2)[C@]1(C)C(=O)OC
inactive: OVCAR-8 > 100 µM | UACC-62 > 100 µM | SK-OV-3 > 100 µM | RXF 393 > 100 µM | CAKI-1 > 100 µM | SF-268 > 100 µM | SN12C > 100 µM | MOLT-4 > 100 µM | NCI-H522 > 100 µM | COLO 205 > 100 µM | HOP-62 > 100 µM | OVCAR-3 > 100 µM | HL-60 > 100 µM | Malme-3M > 100 µM

CN(C)CCC(=O)/C=C\c1ccccc1
inactive: OVCAR-8 18.1 µM | SR 15 µM | UACC-62 17.4 µM | NCI-H226 23 µM | RXF 393 15.6 µM | CAKI-1 18.3 µM | SN12C 16.6 µM | MOLT-4 13.5 µM | NCI-H522 18.9 µM | COLO 205 15.8 µM | HOP-62 67.3 µM | OVCAR-3 18.2 µM | HL-60 10.6 µM | Malme-3M 17.1 µM

COc1ccc(NC(=O)/C(Cc2nc3ccccc3nc2O)=N\O)c(OC)c1
inactive: OVCAR-8 > 100 µM | SR > 100 µM | UACC-62 > 100 µM | NCI-H226 > 100 µM | SK-OV-3 > 100 µM | RXF 393 > 100 µM | CAKI-1 > 100 µM | SF-268 > 100 µM | SN12C > 100 µM | NCI-H522 > 100 µM | COLO 205 > 100 µM | HOP-62 > 100 µM | OVCAR-3 > 100 µM | HL-60 > 100 µM | Malme-3M > 100 µM

COc1ccc([C@@H]2CC(=O)NCCCCNCCCN2)cc1
inactive: OVCAR-8 > 100 µM | SR > 100 µM | UACC-62 > 100 µM | NCI-H226 > 100 µM | SK-OV-3 > 100 µM | RXF 393 > 100 µM | CAKI-1 > 100 µM | SF-268 > 100 µM | SN12C > 100 µM | MOLT-4 > 100 µM | NCI-H522 > 100 µM | COLO 205 > 100 µM | HOP-62 > 100 µM | HL-60 > 100 µM | Malme-3M > 100 µM

CC1(C)OC2C(CCP(=O)(O)O)OC(c3nc(C(N)=O)cs3)C2O1 (stereo not given)
inactive: OVCAR-8 > 100 µM | UACC-62 > 100 µM | NCI-H226 > 100 µM | SK-OV-3 > 100 µM | RXF 393 > 100 µM | CAKI-1 > 100 µM | SF-268 > 100 µM | SN12C > 100 µM | MOLT-4 > 100 µM | NCI-H522 > 100 µM | COLO 205 > 100 µM | Malme-3M > 100 µM

C[C@]12CC[C@H](OC(=O)Cc3ccc(N(CCCl)CCCl)cc3)CC1CC[C@@H]1C2CC[C@]2(C)NC(=O)CCC12 (stereo not given in full)
inactive: OVCAR-8 > 10 µM | UACC-62 6.68 µM | NCI-H226 15.5 µM | SK-OV-3 17 µM | RXF 393 7.74 µM | CAKI-1 3.92 µM | SF-268 9.64 µM | SN12C 5.38 µM | MOLT-4 3.08 µM | NCI-H522 10.7 µM | COLO 205 5.4 µM | HOP-62 > 10 µM | OVCAR-3 4.04 µM | HL-60 2.48 µM | Malme-3M 15.8 µM

CCCCCCCCCCCCCC(=O)OCC1OC(n2cc(F)c(=O)[nH]c2=O)C(N)C(OC(=O)CCCCCCCCCCCCC)C1O (stereo not given)
inactive: OVCAR-8 > 100 µM | SR > 100 µM | UACC-62 > 100 µM | SK-OV-3 > 100 µM | RXF 393 > 100 µM | CAKI-1 > 100 µM | SF-268 > 100 µM | SN12C > 100 µM | MOLT-4 > 100 µM | NCI-H522 > 100 µM | COLO 205 > 100 µM | HOP-62 > 100 µM | OVCAR-3 > 100 µM | HL-60 > 100 µM | Malme-3M > 100 µM

Cc1cc(Cl)cc2c1NC(=O)C2(O)CC(=O)c1ccc(F)cc1 (stereo not given)
inactive: OVCAR-8 80.7 µM | UACC-62 20 µM | NCI-H226 39.8 µM | SK-OV-3 > 100 µM | RXF 393 19.7 µM | CAKI-1 > 100 µM | SF-268 67 µM | SN12C 27.2 µM | COLO 205 24.8 µM | HOP-62 > 100 µM | OVCAR-3 37.8 µM | Malme-3M 29.3 µM

O=C(O)CCCSC(=O)Nc1ccc(/N=N/c2ccccc2)cc1
inactive: OVCAR-8 > 100 µM | SR > 100 µM | UACC-62 > 100 µM | NCI-H226 > 100 µM | RXF 393 > 100 µM | CAKI-1 > 100 µM | SF-268 56.1 µM | SN12C > 100 µM | MOLT-4 9.68 µM | NCI-H522 > 100 µM | COLO 205 > 100 µM | HOP-62 > 100 µM | OVCAR-3 > 100 µM

Cc1cc(-c2ccccc2)cc2[n+]1CC=C2.[O-][Cl+3]([O-])([O-])[O-]
inactive: OVCAR-8 > 100 µM | NCI-H226 45.6 µM | RXF 393 46.1 µM | CAKI-1 > 100 µM | SF-268 > 100 µM | SN12C 95.5 µM | NCI-H522 39.6 µM | COLO 205 > 100 µM | HOP-62 > 100 µM | HL-60 72.3 µM | Malme-3M 75 µM

Oc1ccccc1-c1cnnc(-c2ccccc2O)c1
inactive: OVCAR-8 22.6 µM | SR 19 µM | UACC-62 17.5 µM | NCI-H226 42 µM | SK-OV-3 43.5 µM | RXF 393 20.3 µM | CAKI-1 28.6 µM | SF-268 38.2 µM | SN12C 30.3 µM | MOLT-4 18.1 µM | NCI-H522 17.7 µM | COLO 205 22 µM | OVCAR-3 19 µM | HL-60 19.8 µM | Malme-3M 33.6 µM

CCOP(=O)(OCC)/C(C#N)=C\c1ccsc1
inactive: OVCAR-8 > 100 µM | UACC-62 > 100 µM | NCI-H226 > 100 µM | SK-OV-3 > 100 µM | RXF 393 > 100 µM | CAKI-1 > 100 µM | SF-268 > 100 µM | SN12C > 100 µM | MOLT-4 > 100 µM | NCI-H522 > 100 µM | COLO 205 > 100 µM | HOP-62 > 100 µM | OVCAR-3 > 100 µM | Malme-3M > 100 µM

CCOC1=C2C(C)(CCC3[C@@]4(C)C=CC(=O)C(C)(C)C4CC(O)[C@@]23C)C(c2ccoc2)C1=O (stereo not given in full)
inactive: OVCAR-8 18.3 µM | UACC-62 18.7 µM | NCI-H226 22 µM | SK-OV-3 26.4 µM | RXF 393 16.1 µM | CAKI-1 20.7 µM | SF-268 24.2 µM | SN12C 25.1 µM | MOLT-4 7 µM | COLO 205 13.1 µM | HOP-62 20.5 µM | OVCAR-3 17 µM | HL-60 14.4 µM | Malme-3M > 10 µM

COc1ccc(C(=O)C#Cc2cnc(O)nc2O)cc1
inactive: OVCAR-8 8.81 µM | SR 2.76 µM | UACC-62 12.9 µM | NCI-H226 18.7 µM | SK-OV-3 52.8 µM | RXF 393 5.47 µM | CAKI-1 9.64 µM | SF-268 21.1 µM | SN12C 6.32 µM | MOLT-4 2.34 µM | NCI-H522 3.12 µM | COLO 205 11.9 µM | HOP-62 19.7 µM | OVCAR-3 9.1 µM | HL-60 5.21 µM | Malme-3M 5.08 µM
